Assays:
MDA-MB-231 cells = assay: Complex uptake and subcellular distribution by ICP-MS; format: cell-based, human; conditions: MDA-MB-231, ICP-MS 106Pd
Description: For the cellular uptake experiments, MDA-MB-231 cells (approx. 5·10^6 cells/5 mL medium) were exposed to the complexes at their respective IC50 concentrations and in two conditions (6 h and 24 h of incubation time) and then washed with ice-cold PBS and centrifuged to obtain a cellular pellet. The cytosol, membrane/particulate, cytoskeletal, and nuclear fractions were extracted using a FractionPREP™ cell fractionation system (BioVision, USA) and performed according to the manufacturer's protocol. The Ru (^101Ru) and Pd (^106Pd) contents in different fractions were measured by using Thermo X-Series Quadrupole ICP-MS (Thermo Scientific) after the digestion of the samples. Briefly, the samples were digested with ultrapure HNO3 (65%), H2O2, and H3PO4 in a closed pressurized microwave digestion unit (Mars5, CEM) with medium-pressure HP500 vessels and then diluted in ultrapure water to obtain 2.0% (v/v) nitric acid. The instrument was tuned using a multielement ICP-MS 71C standard solution (Inorganic Venture). Indium (115In) at […] was used as the internal standard.
For the cellular uptake experiments, MDA-MB-231 cells (approx. 5·10^6 cells / 5 mL medium) were exposed to the complexes at their respective IC50 concentrations and at two conditions (6 h and 24 h of incubation time)., then washed with ice-cold PBS and centrifuged to obtain a cellular pellet.[7] […]

[1] = molecular target: human serum albumin (HSA) (Homo sapiens, UniProt P02768); assay: Binding to human serum albumin by steady-state and time-resolved Trp214 fluorescence
Description: (§1) The stock solutions of HSA were freshly prepared for each experiment by gently dissolving protein in PBS pH 7.4 (tablets from Fisher) for 1 hour to allow protein to completely hydrate. The concentration of the protein in the stock solutions was determined by spectrophotometry using the molar absorption coefficient at 280 nm ε280(HSA) = 36,850 M^−1·cm^−1 [38].
In each essay, all spectroscopic measurements were carried out on individually prepared samples to ensure the same preincubation time at (37.0 ± 0.1)°C, the same % of DMSO in the final samples, and the same exposure to excitation light and to avoid the need for dilution corrections. Moreover, for a direct titration protocol, a highly concentrated stock solution of the compounds in the buffer would be required, which would raise solubility issues. Dimethylsulfoxide (DMSO, from Fisher) was used to prepare concentrated stock solutions of each complex, followed by appropriate dilution to obtain the desired concentration. The DMSO content was kept at 2% (v/v) in PBS pH 7.4 in all samples. Dilutions were carried out immediately before sample preparation.
Fluorescence measurements were performed at 25.0 ± 0.1°C. The final protein concentration in the individually prepared samples (3.72 to 5 μM) was kept constant in each assay, and the complex concentration was varied to obtain desired HSA: Ru-complex molar ratios ranging from 1 : 0.25 to 1 : 10. A control sample containing the same amount of protein and final DMSO content and with no complex was also prepared for each experiment. Appropriate blank samples with no protein but with the same complex concentrations were prepared as well for background correction.
The steady-state fluorescence intensity was measured with excitation at 295 nm, and emission spectra were collected with bandwidths of 4 nm for both excitation and emission. For Stern–Volmer plots, the fluorescence intensity with emission at 340 nm was selected because it is near the maximum emission wavelength (so the sensitivity is close to maximum), but it is further to red in relation to the water Raman scattering peak. These values were corrected for the absorption and emission inner filter effects using the absorbance recorded for each sample at the excitation and emission wavelengths used for the steady-state quenching analysis. For time-resolved fluorescence measurements, the single-photon-counting technique was used with nanoLED N-280 (Horiba Jobin Yvon) as the pulsed excitation source (280 nm) and with emission collected at 350 nm (13 nm emission bandwidth), eliminating the contribution of the emission by tyrosine residues.
The experimental fluorescence intensity decays of HSA in buffer solution can be described by a sum of exponentials:(1) It=∑i=1npiexp−t/τi, where pi and τi are the pre-exponential factors and lifetime of component i, respectively. The amplitude or normalized pre-exponential of each lifetime component αi is pi/Σipi with Σiαi = 1. Fluorescence decays were analysed by an iterative deconvolution method using the TRFA Data Processor software (version 1.4; Minsk, Belarus), and the instrument response function was obtained using scattering by a colloidal suspension of silica (Ludox®, Sigma-Aldrich) diluted in water. Criteria for judging the quality of the fit were reduced χ^2 close to 1 and a random distribution of weighted residuals and residual autocorrelation.
To evaluate changes in the quantum yield by processes affecting the fluorescence lifetimes of HSA, the amplitude-weighted mean fluorescence lifetime ( τ¯ ) was calculated using the following equation:(2) τ¯=∑i=1nαiτi.
as §1, with “dissolving the” for “dissolving”, “allow the” for “allow”, “of” for “of the”, “M^−1 cm^−1.[8] […]” for “M^−1·cm^−1 [38].”

Sequence of human serum albumin (HSA) (P02768 25-609): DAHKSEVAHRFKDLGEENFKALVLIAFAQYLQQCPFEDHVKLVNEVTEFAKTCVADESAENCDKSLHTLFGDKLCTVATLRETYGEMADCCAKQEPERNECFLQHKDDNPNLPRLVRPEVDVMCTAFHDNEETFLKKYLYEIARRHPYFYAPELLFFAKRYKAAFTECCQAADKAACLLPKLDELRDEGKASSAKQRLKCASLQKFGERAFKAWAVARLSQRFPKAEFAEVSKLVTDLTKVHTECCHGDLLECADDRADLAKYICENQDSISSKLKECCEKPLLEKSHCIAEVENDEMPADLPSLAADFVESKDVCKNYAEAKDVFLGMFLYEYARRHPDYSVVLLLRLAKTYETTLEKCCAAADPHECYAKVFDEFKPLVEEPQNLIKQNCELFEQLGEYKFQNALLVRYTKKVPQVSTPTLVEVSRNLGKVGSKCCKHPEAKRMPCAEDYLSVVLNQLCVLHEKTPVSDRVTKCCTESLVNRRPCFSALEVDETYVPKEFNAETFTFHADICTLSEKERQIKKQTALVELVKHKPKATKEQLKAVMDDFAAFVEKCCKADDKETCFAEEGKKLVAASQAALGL

Question: `CN1CN2CN(C)C[P]([Ru+2]([P](c3ccccc3)(c3ccccc3)c3ccccc3)[P](c3ccccc3)(c3ccccc3)c3ccccc3)(C1)C2.O=S(=O)([O-])C(F)(F)F.[Cl][Pd][Cl].c1cc[cH-]c1` [Compound 11, [RuCp(PPh3)2-µ-dmoPTA-1κP-2κ^2N,N′-PdCl2](CF3SO3)] was tested. Which “Pd amount in the membranes” value (MDA-MB-231 cells) did it give?
Answer: only residual

Question: What about the “Emission intensity of Trp214 relative to value in the absence of compound” value ([1]; 20 µM compound (1:4 HSA:compound), 24 h, λem 340 nm) of the same compound?
Answer: ~40%

Question: And the Type of quenching ([1]; HSA-Trp214 fluorescence)?
Answer: “Dynamic” and static

Question: And the “Log K′B” value ([1]; PBS pH 7.4/2% DMSO, 24 h at 37°C)?
Answer: 4.66 ± 0.07

Question: What about the “K′B (conditional binding constant)” value ([1]; PBS pH 7.4/2% DMSO, 24 h at 37°C, fluorescence lifetime Stern–Volmer) of the same compound?
Answer: 4.58 ± 0.33 × 10^4 M^−1

Question: What about the “Concentration above which aggregate formation with HSA is seen” value ([1]; absorption spectra, only in the presence of HSA) of the same compound?
Answer: higher than 10 µM

Question: And the “Spectral shift of Trp214 emission” value ([1]; steady-state emission, 24 h incubation)?
Answer: small blueshift

Question: And the “Effect on amplitude-weighted mean fluorescence lifetime of HSA-Trp214” value ([1]; time-resolved fluorescence, λem 350 nm)?
Answer: decreased

Reference: article PMC10555500, “Evaluation of the Antiproliferative Properties of CpRu Complexes Containing N-Methylated Triazaphosphaadamantane Derivatives” (Bioinorganic Chemistry and Applications, 2023)
